Experimental data reported in patent publication US20110245334A1, “USE OF RACEMATES OF PINOCEMBRIN IN PREPARING MEDICAMENTS FOR TREATING STROKE” (CSPC Zhonggi Pharmaceutical Technology (Shijiazhuang) Co. …, priority 2008, published 2011).

How the values were obtained:
Type in all cases: in vivo, rat
MCAO rats [1] = experiment: Neurobehavioral examination (Bederson's score), MCAO acute ischemic stroke
Description: Experimental animals: 100 male SD rats with a body weight of 250-280 g were purchased from the Experimental Animals Institute of the Chinese Academy of Medical Science. The rats were grouped randomly as a sham operation group, a model group, pinocembrin groups and a nimodipine group (3 mg/kg).
Experimental model: the model of acute ischemic stroke was made by middle cerebral artery occlusion (MCAO).
The string occlusion method in middle cerebral artery as established by Zea Longa was adopted with proper improvements. 400 mg/kg 10% chloral hydrate was intraperitoneally injected in rats. The external carotid artery (ECA) was separated and ligated at the site where the artery emitted for about 0.8 cm. The end of ECA closing to the heart was clipped by an artery clip. A 2 mm V-shaped incision was made from ECA ligation to ECA bifurcation. A nylon line was inserted gently into […] and then into internal carotid artery (ICA) through the bifurcation of ECA and ICA after loosening the artery clip. The nylon line was pushed into the brain through ICA and inserted in depth of 18.5±0.5 mm when resistance was felt slightly. The nylon line should reach smaller anterior cerebral artery through the beginning of middle cerebral artery (MCA) and ICA could be ligated and sutured. Stump of the nylon line should be reserved with 1 cm outside the skin.
Neurobehavioral examination was performed before the animals were put to death. The rats were raised off the ground for about 1 chi (1 chi=⅓ meter) to observe the state of two forelimbs. The rats were placed on the ground and were pushed by their shoulders to observe differences of their resistance. The rats were placed on the ground and were observed by the way of walking. Four-stage scoring method […] was adopted. The higher the score was, the more serious injury existed in their neurobehavior.
Bederson's scoring standard:
(1) If the rats acted completely normal, score 0 was recorded.
(2) When the rats were raised off the ground, if the rats rotated or retracted forelimb of surgery-contralateral side internally, score 1 was recorded.
(3) When the rats were placed on the ground and squeezed with the hand to examine the resistance of both sides, if the resistance of surgery-contralateral side declined, score 2 was recorded.
(4) When the rats were placed on the ground to observe the way of walking, if the rats circled around the surgery-contralateral side, score 3 was recorded.
(5) If the rats were injured too seriously to move by themselves, score 4 was recorded.

tMCAO rats [2] = experiment: Brain water content, tMCAO time window study; conditions: 2 hours ischemia and 24 hours reperfusion
Description: (§1) 1. In the test, transient middle cerebral artery occlusion (tMCAO) model of rats was adopted. The reperfusion was performed after focal cerebral ischemia for 2 hours so as to inspect therapeutic time window of pinocembrin after focal cerebral ischemia. The rats were administered by pinocembrin racemate (1 mg/kg, 5 mg/kg, intravenous injection) after reperfusion 1 hour, 4 hours and 6 hours (i.e., ischemia 3 hour, 6 hours and 8 hours). (R)-pinocembrin and (S)-pinocembrin (1 mg/kg, 5 mg/kg, intravenous injection) were administered after reperfusion 1 hour and 4 hours (i.e., ischemia 3 hour and 6 hours). The therapeutic time windows of these drugs in focal cerebral ischemia were assessed by studying their effects to neurological symptom scores, infarct sizes and brain water contents during 24 hours after tMCAO.
(§2) 2.4 Experimental Grouping and Administration • Sham operation group (intravenous injection of normal saline after 3 hours of ischemia); • Model group (intravenous injection of 50 mg/kg hydroxypropyl β-cyclodextrin after 3 hours of ischemia); • Nimodipine group (1 mg/kg, administered after 3 hours of ischemia); • Pinocembrin racemate group (1 mg/kg, 5 mg/kg, administered after 3, 6 and 8 hours of ischemia); • (R)-pinocembrin group (1 mg/kg, 5 mg/kg, administered after 3 and 6 hours of ischemia); • (S)-pinocembrin group (1 mg/kg, 5 mg/kg, administered after 3 and 6 hours of ischemia).
(§3) First administration was performed by intravenous injection, and intraperitoneal injection was carried out once 12 hours later with a dose 1.5 times of that for intravenous injection.
The wet weight of each animal's brain was weighted before sliced. After staining, the brain slices were dried at 105° C. for 24 hours, and the dry weight of each animal's brain was weighted. The brain water contents of animals of various groups were compared. Brain water content=(brain wet weight−brain dry weight)/brain wet weight×100%.

MCAO rats [3] = experiment: Cerebral infarct volume (TTC), MCAO
Description: After neurobehavioral scoring, the rats were put to death by decollation and their brain tissues were removed quickly and put into a refrigerator of −20° C. 10 min later, the brain tissue was moved to an environment of room temperature. After the olfactory bulb, cerebellar and lower brain stem were resected, the brain tissue was cut into five continuous coronal slices with an interval of 2 mm and was cut first on the connection midpoint of brain anterior pole and optic decussation, second on optic decussation, third on funnel handle and fourth on midpoint of funnel handle and thick leaves caudate nucleus. Then the brain slices were quickly put into 5 ml solution containing 4% TTC and 0.1 ml mol·L^−1K2HPO4 and incubated at a constant temperature of 37° C. and in condition of darkness for 30 min. During the time period, the brain slices were tipped every 5 min. […] Every group of brain slices were put in order and photographed. The photographs were processed by an image analysis system and infarct area in every slice was calculated. The infarct volume of every slice was calculated by multiplying the infarct area by the thickness of slice (2 mm), and the infarct volume was the sum of infarct volumes of all slices.
Infarct volume(%)=(volume of surgery-contralateral hemisphere−infarct volume of surgery-homolateral hemisphere)/volume of surgery-contralateral hemisphere×100%

tMCAO rats [4] = experiment: Neurobehavioral examination (Bederson's score), tMCAO time window study; conditions: 2 hours ischemia and 24 hours reperfusion
Description: as §1
The CCA and ICA were clipped with artery clips. Two No. 0 surgery lines were litigated on the ECA distal end with 2-3 mm spacing and then the vascular between the two surgery lines was cut. The distal end of ECA was pulled until it formed a straight line with the ICA. An incision was cut on ECA and a nylon line was inserted through ECA into ICA. After the artery clip was loosen, the nylon line was pushed on into the brain through ICA and inserted in depth of 18.5±0.5 mm when resistance was felt slightly. The nylon line reached a smaller anterior cerebral artery through the beginning of MCA and then the blood flow obstruction in right MCA was established. the animals were kept in anesthesia during the obstruction. After 2 hours of obstruction, the nylon line was gently pulled out to ECA stub to form reperfusion. During the surgery process, the animals were irradiated by table lamp of 100 W to maintain the body temperature. The room temperature was kept in range of 23-25° C.
as §2, §3
Neurobehavioral examination was performed respectively when the animals were awake after surgery and before the animals were put to death. Bederson's score was adopted (see details in Example 2, 1. Neurobehavioral Examination).

plasma fibrinogen = experiment: Plasma fibrinogen assay (ELISA) in SHRSP; design: Plasma fibrinogen: unit not given here; conditions: SHRSP rats
Description: The mixture was centrifuged for 15 min at 3000 rpm and plasma fibrinogen in liquid supernatant was determined by euzymelinked immunosorbent assay (ELISA).

O=C1CC(c2ccccc2)Oc2cc(O)cc(O)c21 (racemic) [Pinocembrin racemate, pinocembrin racemate]
Bederson's score (MCAO rats [1]; 3 mg/kg): 2.4 ± 0.7 | Bederson's score (MCAO rats [1]; 10 mg/kg): 1.8 ± 0.6 | Bederson's score (MCAO rats [1]; 30 mg/kg): 1.5 ± 0.3 | Brain water content (%) (tMCAO rats [2]; 1 mg/kg, 3 h): 82.20 ± 1.00 % | Brain water content (%) (tMCAO rats [2]; 1 mg/kg, 6 h): 82.44 ± 1.28 % | Brain water content (%) (tMCAO rats [2]; 1 mg/kg, 8 h): 83.26 ± 1.05% | Brain water content (%) (tMCAO rats [2]; 5 mg/kg, 3 h): 82.23 ± 1.42 % | Brain water content (%) (tMCAO rats [2]; 5 mg/kg, 6 h): 81.12 ± 1.42 % | Brain water content (%) (tMCAO rats [2]; 5 mg/kg, 8 h): 83.29 ± 1.79% | Percentage of infarct volume (%) (MCAO rats [3]; 3 mg/kg): 23.1 ± 3.4 % | Percentage of infarct volume (%) (MCAO rats [3]; 3 mg/kg, listed as pinocembrin racemate): 23.1±3.4% | Percentage of infarct volume (%) (MCAO rats [3]; 10 mg/kg): 21.4 ± 2.1 % | Percentage of infarct volume (%) (MCAO rats [3]; 10 mg/kg, listed as pinocembrin racemate): 21.4±2.1% | Percentage of infarct volume (%) (MCAO rats [3]; 30 mg/kg): 14.6 ± 1.1 % | Percentage of infarct volume (%) (MCAO rats [3]; 30 mg/kg, listed as pinocembrin racemate): 14.6±1.1% | Neurobehavioral value (tMCAO rats [4]; 1 mg/kg, 3 h): 1.44 ± 0.72 | Neurobehavioral value (tMCAO rats [4]; 1 mg/kg, 6 h): 1.68 ± 0.46 | Neurobehavioral value (tMCAO rats [4]; 1 mg/kg, 8 h): 1.88 ± 0.61 | Neurobehavioral value (tMCAO rats [4]; 5 mg/kg, 3 h): 1.44 ± 0.52 | Neurobehavioral value (tMCAO rats [4]; 5 mg/kg, 6 h): 1.66 ± 0.77 | Neurobehavioral value (tMCAO rats [4]; 5 mg/kg, 8 h): 1.91 ± 0.66 | Plasma fibrinogen (plasma fibrinogen; 3 mg/kg): 2.79 ± 0.13 | Plasma fibrinogen (plasma fibrinogen; 10 mg/kg): 2.62 ± 0.15 | Plasma fibrinogen (plasma fibrinogen; 30 mg/kg): 2.56 ± 0.42

COCCOC(=O)C1=C(C)NC(C)=C(C(=O)OC(C)C)C1c1cccc([N+](=O)[O-])c1 (stereo not drawn) [Nimodipine, reference compound]
Bederson's score (MCAO rats [1]; 3 mg/kg): 2.5 ± 0.7 | Brain water content (%) (tMCAO rats [2]; 1 mg/kg, 3 h): 83.33 ± 1.01% | Percentage of infarct volume (%) (MCAO rats [3]; 3 mg/kg): 16.7 ± 1.3 % | Percentage of infarct volume (%) (MCAO rats [3]; 3 mg/kg, listed as nimodipine): 16.7±1.3% | Neurobehavioral value (tMCAO rats [4]; 1 mg/kg, 3 h): 2.09 ± 0.63 | Plasma fibrinogen (plasma fibrinogen; 3 mg/kg): 2.67 ± 0.13
